Experimental data taken from US20260207570A1, “OPTIMIZED DOSING OF LERIGLITAZONE” (MINORYX THERAPEUTICS S.L., priority 2022, published 2026).
Where two headings read alike, the source gives them in different places.

Columns and labels:
[1] = Phase 1 single ascending dose (SAD) pharmacokinetics in healthy volunteers; type: in vivo, human; settings: male, human, oral; for Cmax: read-out: Cmax, Observed; for Tmax: read-out: Tmax, Observed
Protocol: (§1) Study design: A phase 1, randomized, double blind, placebo-controlled, single-center clinical study in 33 male healthy volunteers (HV) (19-54 years, 63.2-95.7 Kg) was conducted with leriglitazone HCl and divided in two parts: a single ascending dose (SAD) with three dose levels (30, 90 and 270 mg) in fasted conditions, followed with two dose levels (90 and 270 mg) in fed conditions; a multiple ascending dose (MAD) with a double-blind, parallel-design with two dose levels (135 and 270 mg) for 8 days and a separate cohort of subjects in an open-label parallel design with two dose levels (135 and 270 mg) including cerebrospinal fluid (CSF) collection on day 8. In the fasted conditions a fasting period of at least 4 hours was required before obtaining plasma samples. The food effect (FE) was assessed by comparing fasted with fed conditions (dosing after a high-fat breakfast per FDA definition with a calculated caloric content of 918 kcal). In the MAD part (fed) the medication was taken before a normal breakfast. Leriglitazone HCl was supplied by ChemConnection and an oral suspension of leriglitazone (20% w/v kleptose, 2% ethanol in 100 mM phosphate buffer pH=7.8) at 6 mg/ml was used in the study.
(§2) Blood, Urine and CSF sampling: In the SAD, blood samples were drawn at the following time points: pre-dose and 0.25, 0.5, 0.75, 1, 1.5, 2, 2.5, 3, 4, 5, 6, 8, 10, 12, 16, 24, 36, 48, 72, 96 and 120 hours post-dose. Urine was collected at pre-dose (within 12 hours prior to dosing) and over 0-6, 6-12, 12-24, 24-36, 36-48 hours post-dose collection intervals. In the MAD, blood samples were collected on day 1 at pre-dose and 0.25, 0.5, 0.75, 1, 1.5, 2, 2.5, 3, 4, 5, 6, 8, 10, 12, and 16 hours post-dose and at pre-dose and at 4 hours post-dose on day 2 to day 7, and on day 8 at pre-dose and 0.25, 0.5, 0.75, 1, 1.5, 2, 2.5, 3, 4, 5, 6, 8, 10, 12, 16, 24, 36, 48, 72, 96 and 120 hours post-dose. CSF were taken on day −1 and on day 8, at 4 hours post-dose.
(§3) Pharmacokinetic parameter calculation: PK parameters (Cmax, Tmax, t1/2, AUC0-t, CL/F, Vz/F, AUC0-t, RAUC, RCmax) were estimated using non-compartmental analysis (NCA) (Phoenix WinNonlin® Version 6.3).
(§4) Statistical analysis: Descriptive statistics for all relevant PK parameters: n, mean, minimum, median, maximum, geometric mean, and coefficient of variation (CV %); analysis of variance on Cmax and AUC to determine dose proportionality and food effect (FE).

[2] = Phase 1 multiple ascending dose (MAD) pharmacokinetics with CSF collection in healthy volunteers; type: in vivo, human; settings: for CSF C4h / concentration at 4 h: total; for accumulation RCmax: day 8 vs day 1; for Vd/F: read-out: Vz/F
Protocol: as §1, §2, §3, §4
The ratio of unbound leriglitazone concentration in brain to unbound concentration in plasma (Kpu,u; Cb,u/Cp,u) was calculated dividing the unbound CSF Cmax by the unbound plasma Cmax. Fractions unbound in plasma (fu,p) to obtain the unbound Cmax values were already reported. Rodriguez-Pascau, L. et al., Sci. Transl. Med. 13, eabc0555 (2021).

[3] = PBPK model input parameters: physicochemical
[4] = plasma, 270 mg, single dose 270 mg Fasted
[5] = plasma, 270 mg, single dose 270 mg Fed

SMILES: CC(O)c1ccc(CCOc2ccc(CC3SC(=O)NC3=O)cc2)nc1 (stereo not drawn) [Leriglitazone, 5-[[4-[2-[5-(1-hydroxyethyl)pyridin-2-yl]ethoxy]phenyl]methyl]-1,3-thiazolidine-2,4-dione]
- Cmax [1, 4]: 13400 ng/mL
- Tmax [1, 4]: 1.5 h
- AUC ([1]; plasma, 270 mg, single dose 270 mg Fed, read-out: AUC, Observed): 368 µg·h/mL
- Cmax [1, 5]: 11500 ng/mL
- Tmax [1, 5]: 4 h
- Vd ([1]; plasma, PBPK model input, estimated from phase 1 SAD data, read-out: Vss): 0.29 L/kg
- half-life ([1]; plasma, SAD, read-out: Half-lives): 23 to 24 h
- CL renal ([1]; urine, PBPK model input): 0.55 mL/min
- CL/F ([2]; 135 mg MD Day 1, n = 8, geometric mean (CV %)): 1.59 (17.8) L./h
- CSF C4h ([2]; 135 mg MD Day 8, 4 hours post-dose, geometric mean (CV %)): 188 (15.9) ng/mL
- CL/F ([2]; 270 mg MD Day 1, n = 8, geometric mean (CV %)): 1.63 (14.4) L./h
- CSF C4h ([2]; 270 mg MD Day 8, 4 hours post-dose, geometric mean (CV %)): 332 (13.4) ng/mL
- increase of CSF concentration on doubling the dose ([2]; 270 mg vs 135 mg, day 8, 4 hours post-dose): 1.8 fold
- accumulation RCmax ([2]; MAD 135 mg): 1.7
- accumulation RAUC ([2]; MAD 270 mg dose): 1.81
- accumulation RCmax ([2]; MAD 270 mg): 1.7
- time to steady state ([2]; MAD 135 or 270 mg daily, fed): 5 days
- CSF Cmax ([2]; human, 135 mg): 188 ng/mL
- CSF Cmax ([2]; human, 270 mg): 332 ng/mL
- brain penetration ([2]; judged from CSF to plasma concentrations): good
- Kp at 4 h ([2]; male, CSF and plasma (unbound), oral, human, 135 mg, unbound CSF Cmax / unbound plasma Cmax, read-out: Kpu, u based on CSF): 0.55
- Kp ([2]; male, CSF and plasma (unbound), oral, human, 270 mg, unbound CSF Cmax / unbound plasma Cmax, read-out: Kpu, u based on CSF): 0.54
- Kp at 4 h ([2]; male, human, CSF and plasma, oral, 135 mg MD Day 8, geometric mean (CV %), read-out: CSF/Plasma): 0.021
- Kp at 4 h ([2]; male, human, CSF and plasma, oral, 270 mg MD Day 8, geometric mean (CV %), read-out: CSF/Plasma): 0.024
- Kp at 4 h ([2]; male, human, CSF and plasma, oral, day 8, 4 hours post-dose, read-out: total concentrations in CSF as share of total plasma concentrations): 0.022 to 0.025
- concentration at 4 h ([2]; male, human, CSF, oral, 135 mg MD Day 8, 4 hours post-dose, geometric mean (CV %), read-out: CSF C4h): 188 ng/mL
- concentration at 4 h ([2]; male, human, CSF, oral, 270 mg MD Day 8, 4 hours post-dose, geometric mean (CV %), read-out: CSF C4h): 332 ng/mL
- Tmax ([2]; male, human, plasma, oral, 135 mg, 135 mg MD Day 1, n = 8, Median, read-out: Tmax): 3 h
- Vd/F ([2]; male, human, plasma, oral, 135 mg, 135 mg MD Day 1, n = 8, geometric mean (CV %)): 47.1 L
- Cmax ([2]; male, human, plasma, oral, 135 mg, 135 mg MD Day 1, n = 8, plasma total, geometric mean, read-out: Cmax): 5430 ng/mL
- Tmax ([2]; male, human, plasma, oral, 135 mg, 135 mg MD Day 8, n = 8, Median, read-out: Tmax): 4 h
- Vd/F ([2]; male, human, plasma, oral, 135 mg, 135 mg MD Day 8, n = 8, geometric mean (CV %)): 27.7 L
- Cmax ([2]; male, human, plasma, oral, 135 mg, 135 mg MD Day 8, n = 8, plasma total, geometric mean, read-out: Cmax): 9500 ng/mL
- AUC ([2]; male, human, plasma, oral, 135 mg, 135 mg daily, fed, Day 1, read-out: AUC, Observed): 85.1 µg·h/mL
- Cmax ([2]; male, human, plasma, oral, 135 mg, 135 mg daily, fed, Day 1, read-out: Cmax, Observed): 5490 ng/mL
- Tmax ([2]; male, human, plasma, oral, 135 mg, 135 mg daily, fed, Day 1, read-out: Tmax, Observed): 3 h
- AUC ([2]; male, human, plasma, oral, 135 mg, 135 mg daily, fed, Day 8, read-out: AUC, Observed): 145 µg·h/mL
- Cmax ([2]; male, human, plasma, oral, 135 mg, 135 mg daily, fed, Day 8, read-out: Cmax, Observed): 9490 ng/mL
- Tmax ([2]; male, human, plasma, oral, 135 mg, 135 mg daily, fed, Day 8, read-out: Tmax, Observed): 4 h
- AUC ([2]; male, human, plasma, oral, 135 mg, human, 135 mg, read-out: Total plasma AUC): 145 µg·h/mL
- Cmax ([2]; male, human, plasma, oral, 135 mg, human, 135 mg, read-out: Total plasma Cmax): 9490 ng/mL
- Tmax ([2]; male, human, plasma, oral, 270 mg, 270 mg MD Day 1, n = 8, Median, read-out: Tmax): 3 h
- Vd/F ([2]; male, human, plasma, oral, 270 mg, 270 mg MD Day 1, n = 8, geometric mean (CV %)): 52.7 L
- Cmax ([2]; male, human, plasma, oral, 270 mg, 270 mg MD Day 1, n = 8, plasma total, geometric mean, read-out: Cmax): 10000 ng/mL
- Tmax ([2]; male, human, plasma, oral, 270 mg, 270 mg MD Day 8, n = 7, Median, read-out: Tmax): 4 h
- Vd/F ([2]; male, human, plasma, oral, 270 mg, 270 mg MD Day 8, n = 7, geometric mean (CV %)): 29.5 L
- Cmax ([2]; male, human, plasma, oral, 270 mg, 270 mg MD Day 8, n = 7, plasma total, geometric mean, read-out: Cmax): 17000 ng/mL
- AUC ([2]; male, human, plasma, oral, 270 mg, 270 mg daily, fed, Day 1, read-out: AUC, Observed): 165 µg·h/mL
- Cmax ([2]; male, human, plasma, oral, 270 mg, 270 mg daily, fed, Day 1, read-out: Cmax, Observed): 10000 ng/mL
- Tmax ([2]; male, human, plasma, oral, 270 mg, 270 mg daily, fed, Day 1, read-out: Tmax, Observed): 3 h
- AUC ([2]; male, human, plasma, oral, 270 mg, 270 mg daily, fed, Day 8, read-out: AUC, Observed): 299 µg·h/mL
- Cmax ([2]; male, human, plasma, oral, 270 mg, 270 mg daily, fed, Day 8, read-out: Cmax, Observed): 17200 ng/mL
- Tmax ([2]; male, human, plasma, oral, 270 mg, 270 mg daily, fed, Day 8, read-out: Tmax, Observed): 4 h
- AUC ([2]; male, human, plasma, oral, 270 mg, human, 270 mg, read-out: Total plasma AUC): 299 µg·h/mL
- Cmax ([2]; male, human, plasma, oral, 270 mg, human, 270 mg, read-out: Total plasma Cmax): 17200 ng/mL
- concentration at 4 h ([2]; male, human, plasma, oral, 270 mg MD Day 8, 4 hours post-dose, geometric mean (CV %), read-out: Plasma C4h): 14200 ng/mL
- mean CL/F ([2]; phase 1 MAD part day 8): 0.93 L/h
- Compound type [3]: Diprotic Base
- logP [3]: 2.47
- pKa ([3]; two values): 4.97
